The source of these data is patent publication EP0863769B1 (priority 1996, dated 1998).

pKd: −log10 of the molar value.

In test [1] the target is B/NIB/15/89 M. The class given is binding, Influenza Viren. As to conditions: read-out: Affinität der Bindung an Virus, Kaff.
The test system of test [2] is menschlicher Influenza Viren der Typen A und B. The test is classed as binding.
For test [3], the target named is B/England/222/82 M. The class given is binding, Influenza Viren. As to conditions: read-out: Affinität der Bindung an Virus, Kaff.
The target of test [4] is A/NIB/50/89 M. The test is classed as binding, Influenza Viren. As to conditions: read-out: Affinität der Bindung an Virus, Kaff.
Test [5] concerns the target A/NIB/3/90 M. The class given is binding, Influenza Viren. To be noted: read-out: Affinität der Bindung an Virus, Kaff.
Test [6] deals with B/NIB/48/90 M. The test is classed as binding, Influenza Viren. As to conditions: read-out: Affinität der Bindung an Virus, Kaff.
Test [7] addresses A/England/157/83 M. The test is classed as binding, Influenza Viren. To be noted: read-out: Affinität der Bindung an Virus, Kaff.
In test [8] the target is A/NIB/23/89 M. The test is classed as binding, Influenza Viren. To be noted: read-out: Affinität der Bindung an Virus, Kaff.
In test [9] the target is A/NIB/12/89 M. The class given is binding, Influenza Viren. As to conditions: read-out: Affinität der Bindung an Virus, Kaff.
Test [10] concerns the target A/NIB/44/90 M. The class given is binding, Influenza Viren. To be noted: read-out: Affinität der Bindung an Virus, Kaff.
For test [11], the target named is A/NIB/47/89 M. The class given is binding, Influenza Viren. To be noted: read-out: Affinität der Bindung an Virus, Kaff.

On to “Poly-N-(2-Hydroxyethyl)-acrylamid mit 20% mol. 6SLN [6SLN-PAA]”, for which the pKd was 7.70 in test [1]; 7.40 in [3]; 7.70 in test [4]; 8.00 in test [5]; 7.40 in test [6]; 7.52 in test [7]. Moreover, the pKd in [8] was 7.70; in test [9] it was 7.00; in test [10] it was 8.00; in [11], 8.00. Further, the “Inhibition der viralen Zelladhäsion” value in [2] is recorded as “hervoragender Inhibitor aller authentischer Influenza Stämme”.
